# Values quoted from earlier work in patent publication US12157728B2, “Targeting of endoplasmic reticulum dysfunction and protein folding stress to treat neurological conditions” (ALS Therapy Development Institute, priority 2018, dated 2024).
# Structures can show the parent of a compound that is named as a salt.
# Key:
# [1] = system: β-amyloid-induced neuronal death
# [2] = not given; remark: listed apart in the source
# [3] = system: GADD34/protein phosphatase 1 (PP1)
# [4] = in vivo
# [5] = system: ER stress-mediated apoptosis; conditions: induced by tunicamycin
solubility in 0.9% saline and aqueous buffers (0.9% saline and aqueous buffers at or below pH 2.0),solubility in water (water),Structure (SMILES),solubility in aqueous buffers (aqueous buffers at or above pH 3.0),β-amyloid-induced neuronal death and microglial activation [1],cell death induced by α-synuclein (PC12 cells),motor neuron degeneration (SOD1 mice),survival (SOD1 mice),solubility in aqueous solutions [2],eIF2α dephosphorylation via GADD34/PP1 complex [3],clearance [4],ER stress-mediated apoptosis [5]
soluble,> 10%,CCCCCCCCc1ccc(CCC(N)(CO)CO)cc1 [Fingolimod hydrochloride],very slightly soluble or practically insoluble,,,,,,,,
,,"O=C(/C=C/c1ccccc1)NC(NC(=S)Nc1cccc2cccnc12)C(Cl)(Cl)Cl (centres unmarked) [Salubrinal, N-(2,2,2-trichloro-1-(3-(quinolin-8-yl)thioureido)ethyl)cinnamamide]",,attenuate β-amyloid-induced neuronal death and microglial activation,protected PC12 cells from cell death,slowed motor neuron degeneration,extended survival,low solubility,prevent eIF2α dephosphorylation,rapid clearance,inhibit ER stress-mediated apoptosis
